Measurements taken from the NIST ThermoML archive (doi:10.1016/j.jct.2007.04.004).

Legend:
[1] = Liquid; for mass density: 101.33 kPa, Pycnometric method; for Normal boiling temperature: Ebulliometric method (Recirculating still)
[2] = excess molar enthalpy (molar enthalpy of mixing); xn = mol fraction of the nth substance listed; settings: 298.15 K, 101 kPa, Liquid

O=C1CCCCC1 [cyclohexanone]
[1]
Settings | mass density [kg/m3] | vapor or sublimation pressure [kPa]
303.15 K | 937.58 | –
426.3 K | – | 95.3

Settings | Normal boiling temperature [°C]
[1] | 155.69

C[S+](C)[O-] [dimethyl sulfoxide]
[1]
Settings | mass density [kg/m3] | vapor or sublimation pressure [kPa]
298.15 K | 1095.37 | –
461 K | – | 95.3

Settings | Normal boiling temperature [°C]
[1] | 189.04

CCC(C)=O [butanone]
[1]
Settings | mass density [kg/m3] | vapor or sublimation pressure [kPa]
298.15 K | 799.71 | –
350.9 K | – | 95.3

Settings | Normal boiling temperature [°C]
[1] | 79.54

CC(=O)CC(C)C [4-methylpentan-2-one]
[1]
Settings | mass density [kg/m3] | vapor or sublimation pressure [kPa]
298.15 K | 796.33 | –
386.7 K | – | 95.3

Settings | Normal boiling temperature [°C]
[1] | 117.39

O=C1CCCCC1 [cyclohexanone] + C[S+](C)[O-]
[2]
Settings | excess molar enthalpy [kcal/mol]
x1 = 0.0386 | 0.0249
x1 = 0.0873 | 0.0566
x1 = 0.1405 | 0.0601
x1 = 0.1917 | 0.105
x1 = 0.2431 | 0.121
x1 = 0.3037 | 0.135
x1 = 0.3596 | 0.152
x1 = 0.4115 | 0.161
x1 = 0.5044 | 0.165
x1 = 0.5686 | 0.158
x1 = 0.6399 | 0.147
x1 = 0.7238 | 0.126
x1 = 0.8119 | 0.0913
x1 = 0.9101 | 0.048

CC(=O)CC(C)C [4-methylpentan-2-one] + C[S+](C)[O-]
[2]
Settings | excess molar enthalpy [kcal/mol]
x1 = 0.0387 | 0.0314
x1 = 0.0839 | 0.0636
x1 = 0.1332 | 0.0937
x1 = 0.1874 | 0.113
x1 = 0.2391 | 0.131
x1 = 0.2901 | 0.143
x1 = 0.3377 | 0.158
x1 = 0.3804 | 0.167
x1 = 0.4029 | 0.172
x1 = 0.4617 | 0.17
x1 = 0.5304 | 0.164
x1 = 0.6116 | 0.144
x1 = 0.6917 | 0.114
x1 = 0.7918 | 0.0687
x1 = 0.837 | 0.0539
x1 = 0.9237 | 0.0255

CCC(C)=O [butanone] + C[S+](C)[O-]
[2]
Settings | excess molar enthalpy [kcal/mol]
x1 = 0.054 | 0.0179
x1 = 0.1094 | 0.0357
x1 = 0.1725 | 0.0509
x1 = 0.2385 | 0.0621
x1 = 0.2956 | 0.0729
x1 = 0.3507 | 0.0832
x1 = 0.4007 | 0.0891
x1 = 0.4448 | 0.0936
x1 = 0.4881 | 0.0944
x1 = 0.5787 | 0.0966
x1 = 0.6433 | 0.0864
x1 = 0.7077 | 0.0737
x1 = 0.7797 | 0.0581
x1 = 0.856 | 0.0356
x1 = 0.9297 | 0.0135
